Laboratory results as given in PubChem BioAssay (NCI).
“And” between values parts separate entries of the source, which are not always exact repeats. Equal values may be shown once.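 Tested at 5 concentrations; 48 h exposure; 96-well plates; endpoints linearly interpolated, else capped at highest concentration. Here, GI50 denotes the concentration required for 50% inhibition of growth. TGI: concentration producing complete growth inhibition.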

How the values were obtained:
Assay in all cases: inhibition of tumour cell growth, NCI panel, 48 h
HOP-92 NSCLC = test system: HOP-92 NSCLC
OVCAR-3 ovarian = test system: OVCAR-3 ovarian
A498 renal = test system: A498 renal
SF-539 CNS = test system: SF-539 CNS
DMS 273 small cell lung = test system: DMS 273 small cell lung
K-562 leukemia = test system: K-562 leukemia
CCRF-CEM leukemia = test system: CCRF-CEM leukemia
NCI-H226 lung = test system: NCI-H226 lung
RPMI-8226 leukemia = test system: RPMI-8226 leukemia
HCT-116 colon = test system: HCT-116 colon
NCI-H522 lung = test system: NCI-H522 lung
HCC-2998 colon = test system: HCC-2998 colon
CAKI-1 renal = test system: CAKI-1 renal
786-0 renal = test system: 786-0 renal
LXFL 529 NSCLC = test system: LXFL 529 NSCLC
LOX IMVI melanoma = test system: LOX IMVI melanoma
MALME-3M melanoma = test system: MALME-3M melanoma
SF-268 CNS = test system: SF-268 CNS
ACHN renal = test system: ACHN renal
SK-MEL-28 melanoma = test system: SK-MEL-28 melanoma
RXF-631 renal = test system: RXF-631 renal
EKVX NSCLC = test system: EKVX NSCLC
XF 498 CNS = test system: XF 498 CNS
UO-31 renal = test system: UO-31 renal
IGROV1 ovarian = test system: IGROV1 ovarian
OVCAR-5 ovarian = test system: OVCAR-5 ovarian
SK-MEL-2 melanoma = test system: SK-MEL-2 melanoma
COLO 205 colon = test system: COLO 205 colon
SNB-78 CNS = test system: SNB-78 CNS
MOLT-4 leukemia = test system: MOLT-4 leukemia
DMS 114 small cell lung = test system: DMS 114 small cell lung
SR leukemia = test system: SR leukemia
KM12 colon = test system: KM12 colon
M14 melanoma = test system: M14 melanoma
OVCAR-4 ovarian = test system: OVCAR-4 ovarian
TK-10 renal = test system: TK-10 renal
KM20L2 colon = test system: KM20L2 colon
UACC-257 melanoma = test system: UACC-257 melanoma
SF-295 CNS = test system: SF-295 CNS
HOP-62 NSCLC = test system: HOP-62 NSCLC
UACC-62 melanoma = test system: UACC-62 melanoma
SK-OV-3 ovarian = test system: SK-OV-3 ovarian
DLD-1 colon = test system: DLD-1 colon
A549 NSCLC = test system: A549 NSCLC
SW-620 colon = test system: SW-620 colon
SNB-75 CNS = test system: SNB-75 CNS
HCT-15 colon = test system: HCT-15 colon
HOP-18 NSCLC = test system: HOP-18 NSCLC
NCI-H23 lung = test system: NCI-H23 lung
M19-MEL melanoma = test system: M19-MEL melanoma
SNB-19 CNS = test system: SNB-19 CNS
HL-60(TB) leukemia = test system: HL-60(TB) leukemia
HT29 colon = test system: HT29 colon
NCI-H460 lung = test system: NCI-H460 lung
RXF 393 renal = test system: RXF 393 renal
U251 CNS = test system: U251 CNS
OVCAR-8 ovarian = test system: OVCAR-8 ovarian
SN12C renal = test system: SN12C renal
SK-MEL-5 melanoma = test system: SK-MEL-5 melanoma

COc1cc2ccc3c4c(OC)cc(OC)c(OC)c4c(=O)n(C)c3c2cc1OC
GI50 (HOP-92 NSCLC): 1.55 µM
TGI (HOP-92 NSCLC): 16.7 µM and 40.4 µM
GI50 (OVCAR-3 ovarian): 0.755 µM
TGI (OVCAR-3 ovarian): 7.02 µM and > 40.5 µM
TGI (A498 renal): 16.7 µM
GI50 (SF-539 CNS): 2.74 µM
TGI (SF-539 CNS): 10.5 µM and > 47.4 µM
GI50 (DMS 273 small cell lung): 22.2 µM
GI50 (K-562 leukemia): 0.303 µM
GI50 (CCRF-CEM leukemia): 0.486 µM
TGI (CCRF-CEM leukemia): 2.04 µM
TGI (NCI-H226 lung): > 42 µM
GI50 (RPMI-8226 leukemia): 0.245 µM
TGI (RPMI-8226 leukemia): 2.15 µM and 1.65 µM
GI50 (HCT-116 colon): 0.455 µM
GI50 (NCI-H522 lung): 0.745 µM
TGI (NCI-H522 lung): 10.9 µM and > 32.8 µM
TGI (HCC-2998 colon): > 36.1 µM
GI50 (CAKI-1 renal): 6.83 µM
TGI (CAKI-1 renal): 16.7 µM and > 44.2 µM
GI50 (786-0 renal): 1.78 µM
GI50 (LXFL 529 NSCLC): 0.766 µM
TGI (LXFL 529 NSCLC): 2.86 µM and > 26.8 µM
GI50 (LOX IMVI melanoma): 1.53 µM
TGI (LOX IMVI melanoma): 3.8 µM
GI50 (MALME-3M melanoma): 13.4 µM
TGI (MALME-3M melanoma): 16.7 µM and > 49.6 µM
GI50 (SF-268 CNS): 1.13 µM
TGI (SF-268 CNS): 10.7 µM and > 21.2 µM
GI50 (ACHN renal): 4.88 µM
TGI (ACHN renal): 16.7 µM and > 44.7 µM
GI50 (SK-MEL-28 melanoma): 8.01 µM
TGI (SK-MEL-28 melanoma): 16.7 µM and > 48.5 µM
GI50 (RXF-631 renal): 0.495 µM
GI50 (EKVX NSCLC): 5.65 µM
TGI (EKVX NSCLC): 16.7 µM and > 48.7 µM
GI50 (XF 498 CNS): 5.27 µM
TGI (XF 498 CNS): 7.16 µM and 61.2 µM
TGI (UO-31 renal): > 48.9 µM
TGI (IGROV1 ovarian): 16.7 µM and > 45.6 µM
TGI (OVCAR-5 ovarian): 23.1 µM
GI50 (SK-MEL-2 melanoma): 3.29 µM
TGI (SK-MEL-2 melanoma): 16.7 µM and > 47.6 µM
GI50 (COLO 205 colon): 1.3 µM
TGI (COLO 205 colon): 4.09 µM and 9.95 µM
TGI (SNB-78 CNS): 32.5 µM
GI50 (MOLT-4 leukemia): 0.591 µM
TGI (MOLT-4 leukemia): 10.2 µM and 3.79 µM
GI50 (DMS 114 small cell lung): 1.87 µM
TGI (DMS 114 small cell lung): 16.7 µM and 26.6 µM
TGI (SR leukemia): 2.97 µM
GI50 (KM12 colon): 0.548 µM
TGI (KM12 colon): 2.57 µM
GI50 (M14 melanoma): 2.28 µM
TGI (M14 melanoma): 7.91 µM and > 33.9 µM
GI50 (OVCAR-4 ovarian): 2.67 µM
TGI (OVCAR-4 ovarian): 8.32 µM and > 45.8 µM
GI50 (TK-10 renal): > 16.7 µM
TGI (TK-10 renal): > 54.6 µM
GI50 (KM20L2 colon): 0.446 µM
GI50 (UACC-257 melanoma): 3.09 µM
TGI (UACC-257 melanoma): 16.7 µM and > 49.2 µM
GI50 (SF-295 CNS): 0.809 µM
TGI (SF-295 CNS): 2.89 µM and > 22.4 µM
GI50 (HOP-62 NSCLC): 1.4 µM
TGI (HOP-62 NSCLC): 7.11 µM and > 43.5 µM
GI50 (UACC-62 melanoma): > 16.7 µM
TGI (UACC-62 melanoma): > 47.3 µM
TGI (SK-OV-3 ovarian): > 47.8 µM
GI50 (DLD-1 colon): 1.8 µM
TGI (DLD-1 colon): 4.14 µM and > 33.5 µM
GI50 (A549 NSCLC): 1.18 µM
TGI (A549 NSCLC): 16.7 µM and > 35.8 µM
GI50 (SW-620 colon): 1.05 µM
TGI (SW-620 colon): 4.43 µM
GI50 (SNB-75 CNS): 3.25 µM
TGI (SNB-75 CNS): 14.5 µM and > 42.5 µM
GI50 (HCT-15 colon): 1.87 µM
TGI (HOP-18 NSCLC): > 100 µM
GI50 (NCI-H23 lung): 2.09 µM
TGI (NCI-H23 lung): 16.7 µM and > 46 µM
GI50 (M19-MEL melanoma): 3.7 µM
TGI (M19-MEL melanoma): 16.7 µM and > 40.9 µM
TGI (SNB-19 CNS): > 51.7 µM
GI50 (HL-60(TB) leukemia): 0.351 µM
TGI (HL-60(TB) leukemia): 1.16 µM
GI50 (HT29 colon): 1.75 µM
TGI (HT29 colon): 4.77 µM
TGI (NCI-H460 lung): > 33.5 µM
GI50 (RXF 393 renal): 3.44 µM
TGI (RXF 393 renal): 16.7 µM and > 44.7 µM
GI50 (U251 CNS): 0.299 µM
TGI (U251 CNS): 3.71 µM and 10.6 µM
GI50 (OVCAR-8 ovarian): 0.451 µM
GI50 (SN12C renal): 0.532 µM
GI50 (SK-MEL-5 melanoma): 4.11 µM
TGI (SK-MEL-5 melanoma): 16.7 µM and 35.1 µM
